{"source": "patent US20170027893A1", "about": "“THIOSEMICARBAZONES INHIBITORS OF LYSOPHOSPHATIDIC ACID ACYLTRANSFERASE AND USES THEREOF” (H. LEE CANCER CENTER AND RESEARCH INSTITUTE, INC., priority 2014, published 2017)", "key": {"[1]": {"molecular_target": "T1, LPAAT-β (Homo sapiens, UniProt O15120)", "T1 sequence (O15120 24-278)": "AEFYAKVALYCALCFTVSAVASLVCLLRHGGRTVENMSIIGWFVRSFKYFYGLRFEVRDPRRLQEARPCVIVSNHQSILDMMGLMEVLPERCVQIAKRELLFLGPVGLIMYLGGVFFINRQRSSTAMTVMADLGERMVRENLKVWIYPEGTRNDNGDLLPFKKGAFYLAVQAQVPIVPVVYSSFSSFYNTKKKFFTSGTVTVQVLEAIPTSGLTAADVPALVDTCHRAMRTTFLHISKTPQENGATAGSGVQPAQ", "conditions": "previously reported inhibitors; cited from earlier work"}, "[2]": {"system": "MiaPaCa2 human pancreatic cancer cells", "test": "inhibition of proliferation, Alamar blue, 72 h", "type": "cell-based", "conditions": "Homo sapiens, MIA PaCa-2", "protocol": "The ability of selected compounds from the libraries 6, 15 and 19 to inhibit the growth of MiaPaCa2 human pancreatic cancer cells was investigated. Human pancreatic carcinoma (MiaPaCa2) cells were plated at a low confluency into 96-well tissue culture-treated plates. After allowing cells to attach and grow overnight at 37 degrees in a 5% CO2 incubator, growth medium was replaced with fresh medium (100 μl/well) containing compounds in a range from 0.1-100 μM. All treatments were made from 500× stock solutions in DMSO, and the control wells received an equivalent amount of DMSO in medium. After 72 hours of growth in the presence of the compounds, Alamar blue was added to the wells according to the manufacturer's instructions (Life Technologies, Grand Island, N.Y.) and cells were incubated in its presence for 2-3 hours. Fluorescence readings were performed using a Biotek Synergy II plate reader with […] wavelengths of 530/590 nm. […] Calculated IC50s are representative of at least three independent experiments."}, "[3]": {"system": "MDAMB-231", "test": "anchorage-independent growth in agar", "type": "cell-based, human", "conditions": "MDAMB-231, 2-4 weeks in agar", "protocol": "(§1) FIG. 3. LPAAT-β inhibitors block anchorage-independent growth of cancer cell lines. Human pancreatic (MiaPaCa2 and Panc-1), ovarian (OVCAR-5) and breast cancer (MDAMB-231) cells were plated into 3% agar containing LPAAT-β inhibitors and allowed to grow for 2-4 weeks in the presence of the compounds. […] This effect of the small molecules is similar to the effect of knockdown with LPAAT-β siRNA (nt, non-targeting; LP-1, LPAAT-β)."}, "[4]": {"system": "MiaPaCa2", "test": "anchorage-independent growth in agar", "type": "cell-based, human", "conditions": "MiaPaCa2, 2-4 weeks in agar", "protocol": "as §1"}, "[5]": {"system": "OVCAR-5", "test": "anchorage-independent growth in agar", "type": "cell-based, human", "conditions": "OVCAR-5, 2-4 weeks in agar", "protocol": "as §1"}, "[6]": {"system": "Panc-1", "test": "anchorage-independent growth in agar", "type": "cell-based, human", "conditions": "Panc-1, 2-4 weeks in agar", "protocol": "as §1"}, "[7]": {"system": "mTOR effector protein phosphorylation in MiaPaCa2 cells", "test": "mTOR effector protein phosphorylation, Western blotting", "type": "cell-based", "conditions": "Homo sapiens", "description": "FIG. 4. Inhibition of mTOR effector protein phosphorylation by LPAAT-β inhibitor."}, "[8]": {"system": "Caspase 3 activity in IGROV-1 cells", "test": "induction of apoptosis, cleavage of fluorescent Caspase 3 substrate", "type": "cell-based, human", "conditions": "IGROV-1, 48 hr", "protocol": "FIGS. 5A-5B. Induction of apoptosis with 19s treatment in pancreatic and ovarian cancer cell lines. Human pancreatic (MiaPaCa2) and ovarian (IGROV-1) cells were treated for 48 hr with LPAAT-b inhibitors then harvested and the samples assayed for their ability to cleave a fluorescent Caspase 3 specific substrate, Av-DEVD-AMC (A) In addition, the samples were run on SDS-PAGE gels and Western blotted to assess the presence of the activated form of Caspase 3 (inset). MiaPaCa2 cells show 3.5-fold and IGROV-1 cells show 25-fold activation of Caspase 3 activity after treatment with 19s compared to a vehicle-treated control sample. (B) PARP cleavage in MiaPaCa2 cells treated for 72 hr with 10 μM 19s and 19p."}, "[9]": {"system": "IGROV-1 ovarian cancer cells", "test": "combination with 5-FU, proliferation by Alamar blue, isobolograms", "type": "cell-based, human", "conditions": "IGROV-1, 72 hr, simultaneous combination", "protocol": "(§2) FIG. 6. Synergistic effect of YG9-095-3 with 5-FU in IGROV-1 ovarian cancer cells. Human ovarian and pancreatic carcinoma cell lines (IGROV-1 and OVCAR-5; Panc-1) were treated for 72 hr with 19s, 5-FU, and the two drugs in simultaneous combination. […] However, in OVCAR-5 cells, at low concentration there appears to be an additive effect of the two drugs on proliferation, but the effect becomes antagonistic at the higher concentrations of YG9-095-3."}, "[10]": {"system": "OVCAR-5 cells", "test": "combination with 5-FU, proliferation by Alamar blue, isobolograms", "type": "cell-based, human", "conditions": "OVCAR-5, 72 hr", "protocol": "as §2"}, "[11]": {"system": "Panc-1", "test": "combination with 5-FU, proliferation by Alamar blue, isobolograms", "type": "cell-based, human", "conditions": "Panc-1, 72 hr", "protocol": "as §2"}, "[12]": {"system": "total cellular PA levels", "test": "total cellular PA levels measured by mass spectroscopy in intact cells", "type": "cell-based", "description": "Inhibition is by more than 50%. Inhibition is greater than that seen with a known DAGK inhibitor. DAGK is an enzyme that can also increase PA levels."}, "[13]": {"system": "mTOR signaling", "test": "inhibition of mTOR signaling (FIG. 20)", "type": "cell-based", "description": "P-p7056k and p-4EBP1 are decreased by treatment at 3 micromolar or higher."}, "[14]": {"system": "RalA", "test": "RalA activation (FIG. 21)", "type": "cell-based", "description": "Therefore this inhibitor can target the RalA effector arm as well as mTOR which few compounds can do."}, "[15]": {"system": "pancreatic cancer cells", "test": "cell cycle progression (FIG. 22)", "type": "cell-based"}, "[16]": {"system": "pancreatic cancer cells", "test": "combination treatment with regorafenib (FIG. 23)", "type": "cell-based", "description": "This is important for the use of YG9-095-3 in combination with standard therapy for Kras mutant colon cancer."}, "[17]": {"test": "body fat percentage measured by MRI in treated mice", "type": "in vivo", "conditions": "after 20 days of treatment", "description": "YG9-095-3 can be a useful compound for the treatment of obesity as well as cancer."}, "[18]": {"molecular_target": "T1, LPAAT-β", "test": "DTNB (Ellman's reagent) 96-well plate screening assay of LPAAT-β enzymatic activity", "type": "biochemical", "set-up": "The assay utilizes full-length, recombinant, baculovirus-produced LPAAT-β; made in house", "protocol": "Screening with a modified screening assay in 96-well plate format for LPAAT-β enzymatic activity was performed as reported by Aguado and Campbell (Aguado et al., Characterization of a human lysophosphatidic acid acyltransferase that is encoded by a gene located in the class III region of the human major histocompatibility complex. J. Biol. Chem. 1998, 273, 4096-105).\nThe assay utilizes full-length, recombinant, baculovirus-produced LPAAT-β, which catalyzes the production of dioleoyl-[…] from the enzymatic substrates oleoyl-lysophosphatidic acid (LPA) and oleoyl-coenzyme A (Scheme 2). The ability of the compound to inhibit the LPAAT-β activity was assayed by the colorimetric measurement of the reaction of the free thiol group of the released coenzyme A with Ellman's reagent [5,5′-dithiobis-(2-nitrobenzoic acid) or DTNB] (Riener et al., Quick measurement of protein sulfhydryls with Ellman's reagent and with 4,4′-dithiodipyridine. Anal. Bioanal. Chem. 2002, 373, 266-76). […] A hit identified from the Life Chemicals library 6a (IC50 100 nM) was selected for further investigation."}, "[19]": {"molecular_target": "T1, LPAAT-β", "test": "secondary thin layer chromatography (TLC) assay measuring fluorescent PA", "type": "biochemical", "set-up": "The assay utilizes full-length, recombinant, baculovirus-produced LPAAT-β; made in house"}}, "note": "Like-named read-outs stand apart in the source and are kept apart here."}
{"smiles": "CCOc1ccc(Cl)cc1-c1cc(N)nc(Nc2ccc(Cl)cc2)c1", "note": "[Compound 2]", "values": [{"measurement": "in vitro activity against LPAAT-β enzyme activity, in words", "setting": "[1]", "value": "potent in vitro activity"}]}
{"smiles": "C#CCOC(=O)Nc1ccc(Cl)c(-c2nc3cc(Cl)ccc3o2)c1", "note": "[Compound 3]", "values": [{"measurement": "in vitro activity against LPAAT-β enzyme activity, in words", "setting": "[1]", "value": "potent anti-enzymatic activity"}]}
{"smiles": "C=CCc1cc(-c2ccc(Cl)c(Cl)c2)cc(C(C)=NNC(N)=S)c1O", "note": "[Compound 19s]", "values": [{"measurement": "IC50", "setting": "[2]", "value": "6.3 ± 2.9", "unit": "µM"}, {"measurement": "inhibition of anchorage-independent growth", "setting": "[3]", "value": "potent inhibition"}, {"measurement": "inhibition of anchorage-independent growth", "setting": "[4]", "value": "potent inhibition"}, {"measurement": "inhibition of anchorage-independent growth", "setting": "[5]", "value": "potent inhibition"}, {"measurement": "inhibition of anchorage-independent growth", "setting": "[6]", "value": "potent inhibition"}, {"measurement": "inhibition at 10 µM", "setting": "[7]; MIA PaCa-2, read-out: inhibition of P-4E-BP 1", "value": 76, "unit": "%"}, {"measurement": "inhibition at 10 µM", "setting": "[7]; MIA PaCa-2, read-out: inhibition of P-AKT", "value": 88, "unit": "%"}, {"measurement": "inhibition at 10 µM", "setting": "[7]; MIA PaCa-2, read-out: inhibition of P-p70", "value": 43, "unit": "%"}, {"measurement": "activation of Caspase 3 activity compared to vehicle-treated control", "setting": "[8]", "value": 25, "unit": "fold"}, {"measurement": "combination effect with 5-FU on cellular proliferation", "setting": "[9]", "value": "moderately synergistic"}, {"measurement": "combination effect with 5-FU on cellular proliferation", "setting": "[10]; at low concentration", "value": "additive"}, {"measurement": "combination effect with 5-FU on cellular proliferation", "setting": "[10]; at the higher concentrations of YG9-095-3", "value": "antagonistic"}, {"measurement": "combination effect with 5-FU on cellular proliferation", "setting": "[11]", "value": "mildly additive to antagonistic"}, {"measurement": "cell membrane permeability", "setting": "[12]; concluded from treatment of intact cells", "value": "cell membrane permeable"}, {"measurement": "inhibition (reduction) of total cellular PA levels", "setting": "[12]; mass spectroscopy, intact cells", "value": "more than 50%"}, {"measurement": "concentration at which P-p70S6k and p-4EBP1 are decreased", "setting": "[13]", "value": "≥ 3", "unit": "µM"}, {"measurement": "inhibition of RalA activation", "setting": "[14]", "value": 50, "unit": "%"}, {"measurement": "effect on cell cycle progression", "setting": "[15]", "value": "S-phase arrest and accumulation"}, {"measurement": "rescue of cells from the cell cycle effect by exogenous PA", "setting": "[15]", "value": "can be rescued"}, {"measurement": "combination effect with regorafenib", "setting": "[16]", "value": "additive to synergistic inhibition"}, {"measurement": "decrease in body fat percentage compared to vehicle treated controls", "setting": "[17]", "value": 50, "unit": "%"}, {"measurement": "IC50", "setting": "[18]; Table 4, read-out: IC50 (μm) (DTNB assay) (converted)", "value": "0.36 ± 0.1", "unit": "µM"}, {"measurement": "IC50", "setting": "[18]; read-out: IC50 (μM) (DTNB assay) (converted)", "value": "0.36 ± 0.1", "unit": "µM"}, {"measurement": "IC50", "setting": "[19]", "value": "2.4 ± 0.7", "unit": "µM"}, {"measurement": "IC50", "setting": "[19]; Table 4", "value": "2.4 ± 0.7", "unit": "µM"}]}
